In the assay the test system is Staphylococcus aureus. In words: In vitro soap bacteriostatic test (agar dilution, spot inoculation, 35°, 48 hours). It is filed as cell-based. The following applies: for MIC: Staphylococcus aureus, without soap, read-out: Compound Activity Without Soap: minimum concentration where S. aureus growth is completely inhibited; for Compound Activity With Soap: minimum concentration where S. aureus growth is completely inhibited: ratio of soap to compound 100:1. As to the method:
The antibacterial properties of the compounds prepared in Examples 1 - 14 were tested in soap. The in vitro soap bacteriostatic tests were conducted as follows: The compound is dissolved in a suitable solvent, usually dimethylformamide, to give a 6% solution. One-half ml. aliquot was added to 100 ml. of 3% solution of bar soap stock solution. The solid soap used was a neutral white toilet soap of the "LUX" type. The fatty acids in this soap were of the following composition: This yields an aqueous soap solution containing 30,000 mcg./ml. soap and 300 mcg./ml. compound. The soap/compound ratio in the latter is 100/l. A two-fold serial dilution series is prepared with this solution using sterile distilled water in test tubes such that the final volume in each tube is 2.0 ml. To each test tube is added 28 ml. of molten Dextrose Trypticase Extract Agar (B.B.L.). The tube contents were poured into sterile Petri plates and allowed to harden. The highest final concentration of compound in the serial dilution series is 20 mcg./ml. Plates were spot inoculated with a broth culture of Staphylococcus aureus and incubated at 35° for 48 hours. The lowest concentration completely inhibiting growth of the test organism, in mcg./ml. is recorded as the bacteriostatic concentration of the compound. Tests in the absence of soap are made in a similar manner except that all dilutions are made in solvent. The final concentration in the agar should not be greater than 5%. The results of these tests with the compounds of the present invention as compared with compounds having chemical structures closely related to the compounds of the present invention (designated by the symbol "C") are set forth in the Table. Column 1 contains the data as to the activity of the test solution without soap; column 2 refers to tests in which the ratio of soap to compound is 100:1. […] Growth is observed at the next lower concentration.
A general note: In agar dilution the substance is mixed into plates at graded concentrations.

Converted amounts (≈) assume the structure as drawn. Bounds are passed on as bounds.

As for `CC(C)(C)c1ccc(C(=O)Nc2cccc(C(F)(F)F)c2)cc1` [Compound C39], the MIC is above 20 µg/mL and the “Compound Activity With Soap: minimum concentration where S. aureus growth is completely inhibited” value is 5.0 µg/mL.
For the compound `O=C(Nc1ccc(C(F)(F)F)cc1)c1ccc(Cl)cc1` [Compound C9], the MIC was above 10 µg/mL and the “Compound Activity With Soap: minimum concentration where S. aureus growth is completely inhibited” value was “B (Inactive at 10 mcg./ml. (highest concentration tested))”.
For `O=C(Nc1cc(C(F)(F)F)ccc1Cl)c1ccccc1Cl` [Compound C17] the same measures were above 10 µg/mL and “B (Inactive at 10 mcg./ml. (highest concentration tested))”.
For `O=C(Nc1cccc(C(F)(F)F)c1)c1cccc(Br)c1` [Compound 4], in that order: above 20 µg/mL and 2.5 µg/mL.
For `O=C(Nc1cc(C(F)(F)F)cc(C(F)(F)F)c1)c1ccc(F)cc1` [Compound C27], in that order: above 20 µg/mL and 10.0 µg/mL.
Consider `O=C(Nc1cc(C(F)(F)F)ccc1Cl)c1cccc(Cl)c1` [Compound C16], for which the MIC is above 10 µg/mL and the “Compound Activity With Soap: minimum concentration where S. aureus growth is completely inhibited” value is “B (Inactive at 10 mcg./ml. (highest concentration tested))”.
For `O=C(Nc1ccc(Cl)c(C(F)(F)F)c1)c1cccc(Cl)c1` [Compound 9, 3,4'-dichloro-α,α,α-trifluoro-m-benzo-toluidide] the same measures were above 20 µg/mL and 0.625 µg/mL.
For `O=C(Nc1ccc(F)c(C(F)(F)F)c1)c1ccc(Cl)cc1` [Compound 17, 4-chloro-α,α,α, 4'-tetrafluoro-m-benzotoluidide] the same measures were above 20 µg/mL and 1.25 µg/mL.
For `O=C(Nc1ccc(Cl)cc1C(F)(F)F)c1ccccc1Cl` [Compound C22] the same measures were above 10 µg/mL and “B (Inactive at 10 mcg./ml. (highest concentration tested))”.
With `N#CSc1ccc(NC(=O)c2ccc(Cl)c(Cl)c2)cc1C(F)(F)F` [Compound C24], the MIC was above 10 µg/mL and the “Compound Activity With Soap: minimum concentration where S. aureus growth is completely inhibited” value is reported as “B (Inactive at 10 mcg./ml. (highest concentration tested))”.
For `O=C(Nc1cc(Cl)cc(Cl)c1)c1ccc(Cl)c(Cl)c1` [Compound C36] the same measures were above 10 µg/mL and “B (Inactive at 10 mcg./ml. (highest concentration tested))”.
For `O=C(Nc1cccc(C(F)(F)F)c1)c1ccccc1` [Compound C5] the same measures were above 20 µg/mL and 10.0 µg/mL.
Take `O=C(Nc1ccc(Cl)c(C(F)(F)F)c1)c1ccccc1Br` [Compound C14]: the MIC was above 10 µg/mL and the “Compound Activity With Soap: minimum concentration where S. aureus growth is completely inhibited” value is on record as “B (Inactive at 10 mcg./ml. (highest concentration tested))”.
For `O=C(Nc1ccc(Cl)c(C(F)(F)F)c1)c1cccc(Br)c1` [Compound 11], in that order: above 20 µg/mL and 2.5 µg/mL.
As to `O=C(Nc1cc(C(F)(F)F)ccc1Cl)c1cccc(Br)c1` [Compound C19], the MIC is above 10 µg/mL and the “Compound Activity With Soap: minimum concentration where S. aureus growth is completely inhibited” value is listed as “B (Inactive at 10 mcg./ml. (highest concentration tested))”.
On to `O=C(Nc1ccc(Cl)c(C(F)(F)F)c1)c1ccc(F)cc1` [Compound C13], for which the MIC was above 20 µg/mL and the “Compound Activity With Soap: minimum concentration where S. aureus growth is completely inhibited” value stood at 5.0 µg/mL.
For `O=C(Nc1ccc(Br)c(C(F)(F)F)c1)c1ccc(Cl)c(Cl)c1` [Compound 16, 4'-bromo-3,4-dichloro-α,α,α-trifluoro-m-benzotoluidide], in that order: above 20 µg/mL and 0.312 µg/mL.
For `O=C(Nc1ccccc1C(F)(F)F)c1ccccc1Cl` [Compound C8], in that order: above 10 µg/mL and “B (Inactive at 10 mcg./ml. (highest concentration tested))”.
For `O=C(Nc1ccc(Cl)c(C(F)(F)F)c1)c1ccc(Br)cc1` [Compound 10, 4-bromo-4'-chloro-α,α,α-trifluoro-m-benzotoluidide], in that order: 0.625 µg/mL (≈ 1.65 µM) and 0.312 µg/mL.
Take `O=C(Nc1ccc(Cl)c(C(F)(F)F)c1)c1ccc(Cl)cc1` [Compound 8, 4,4'-Dichloro-3'(trifluoromethyl) benzanilide]: the MIC was determined as 2.5 µg/mL (≈ 7.48 µM) and the “Compound Activity With Soap: minimum concentration where S. aureus growth is completely inhibited” value came to 0.625 µg/mL.
For `O=C(Nc1cccc(C(F)(F)F)c1)c1ccc(Cl)cc1` [Compound 1, 4-Chloro-3'-(trifluoromethyl) benzanilide] the same measures were 10 µg/mL (≈ 33.4 µM) and 0.625 µg/mL.
For `O=C(Nc1ccc(Cl)c(Cl)c1)c1ccc(Br)cc1` [Compound C37], in that order: 10 µg/mL (≈ 29 µM) and 20.0 µg/mL.
Take `O=C(Nc1ccc(Br)c(C(F)(F)F)c1)c1ccc(Cl)cc1` [Compound 15, 4'-bromo-4-chloro-α,α,α-trifluoro-m-benzotoluidide]: the MIC came to 0.625 µg/mL (≈ 1.65 µM) and the “Compound Activity With Soap: minimum concentration where S. aureus growth is completely inhibited” value is 0.625 µg/mL.
In the case of `O=C(Nc1ccc(Cl)cc1C(F)(F)F)c1cccc(Cl)c1` [Compound C21], the MIC is above 10 µg/mL and the “Compound Activity With Soap: minimum concentration where S. aureus growth is completely inhibited” value is “B (Inactive at 10 mcg./ml. (highest concentration tested))”.
For `O=C(Nc1ccc(Cl)c(Cl)c1)c1ccc(Cl)cc1` [Compound C31], the MIC is above 20 µg/mL and the “Compound Activity With Soap: minimum concentration where S. aureus growth is completely inhibited” value stood at 10.0 µg/mL.
With `O=C(Nc1ccc(Cl)cc1)c1ccc(Cl)c(Cl)c1` [Compound C33], the MIC was above 10 µg/mL and the “Compound Activity With Soap: minimum concentration where S. aureus growth is completely inhibited” value is listed as “B (Inactive at 10 mcg./ml. (highest concentration tested))”.
For `O=C(Nc1cc(C(F)(F)F)cc(C(F)(F)F)c1)c1cccc(Br)c1` [Compound C29], in that order: above 10 µg/mL and “B (Inactive at 10 mcg./ml. (highest concentration tested))”.
For `O=C(Nc1ccc(C(F)(F)F)cc1)c1ccc(F)cc1` [Compound C10] the same measures were 20 µg/mL (≈ 70.6 µM) and 5.0 µg/mL.
For `O=C(Nc1cccc(C(F)(F)F)c1)c1cc(Cl)cc(Cl)c1` [Compound 6], in that order: above 20 µg/mL and 2.5 µg/mL.
Consider `O=C(Nc1cccc(C(F)(F)F)c1)c1ccc(Br)cc1` [Compound 3], for which the MIC was above 20 µg/mL and the “Compound Activity With Soap: minimum concentration where S. aureus growth is completely inhibited” value is 2.5 µg/mL.
For `O=C(Nc1cccc(C(F)(F)F)c1)c1ccccc1Cl` [Compound C1], the MIC is above 20 µg/mL and the “Compound Activity With Soap: minimum concentration where S. aureus growth is completely inhibited” value came to 10.0 µg/mL.
Turning to `O=C(Nc1ccc(Cl)cc1C(F)(F)F)c1ccc(Cl)cc1` [Compound C20], the MIC was above 10 µg/mL and the “Compound Activity With Soap: minimum concentration where S. aureus growth is completely inhibited” value was “B (Inactive at 10 mcg./ml. (highest concentration tested))”.
Take `O=C(Nc1ccc(Cl)c(Cl)c1)c1ccc(Cl)c(Cl)c1` [Compound C35]: the MIC was above 10 µg/mL and the “Compound Activity With Soap: minimum concentration where S. aureus growth is completely inhibited” value is “B (Inactive at 10 mcg./ml. (highest concentration tested))”.
For `O=C(Nc1ccc(Cl)c(Cl)c1)c1ccc(C(F)(F)F)cc1` [Compound C38] the same measures were above 20 µg/mL and 10.0 µg/mL.
Regarding `O=C(Nc1cc(C(F)(F)F)cc(C(F)(F)F)c1)c1ccc(Cl)c(Cl)c1` [Compound 21, 3,4-dichloro-α,α,α,α',α',α'-hexafluorobenzo-3',5'-xylidide], the MIC is above 20 µg/mL and the “Compound Activity With Soap: minimum concentration where S. aureus growth is completely inhibited” value is 0.312 µg/mL.
For `O=C(Nc1cccc(C(F)(F)F)c1)c1ccc(Cl)c(Cl)c1` [Compound 5], in that order: above 20 µg/mL and 2.5 µg/mL.
For `O=C(Nc1ccc(F)c(C(F)(F)F)c1)c1ccc(Br)cc1` [Compound 18, 4-bromo-α,α,α, 4' -tetrafluoro-m-benzotoluidide], in that order: above 20 µg/mL and 1.25 µg/mL.
In the case of `O=C(Nc1cc(Cl)cc(Cl)c1)c1ccc(Cl)cc1` [Compound C32], the MIC is above 20 µg/mL and the “Compound Activity With Soap: minimum concentration where S. aureus growth is completely inhibited” value was 10.0 µg/mL.

The record behind these values is patent US3981814A, “Bacteriostatic substituted benzanilide compositions and methods for their use” (Givaudan Corporation, priority 1975, dated 1976).
